Drawing on patent US20240246945A1, “NOVEL COMPOUND FOR CROP PROTECTANT” (LG CHEM, LTD., priority 2010, published 2024), this text covers mortality for four compounds.

Experiment [1] relates to Myzus persicae (Sulzer). Kind of experiment: Insecticidal Activity Test 1 against Myzus persicae (Sulzer), foliar spray on potted peppers, approximately 5 ppm. Format: in vivo. The following applies: in Capsicum, 120 h, approximately 5 ppm drug solution in water, counted on day 5 after spraying, read-out: mortality rate rating. The source says:
Insecticidal Activity Test 1 Against Myzus persicae (Sulzer)
Peppers were planted in plastic pots with a diameter of 8 cm and a height of 8 cm, Myzus persicae (Sulzer) was reproduced therein, and then the number of Myzus persicae (Sulzer) in each pot was investigated. Some of the compounds prepared in the examples were selected, the compound was dispersed in water to be diluted to approximately 5 ppm, thereby preparing a drug solution.
The drug solution was sprayed onto the foliage of the peppers planted in the pots using a hand sprayer and air-dried, and the pots were stored in a green house.
(§1) On day 5 after the drug spraying, the number of Myzus persicae (Sulzer) parasitic on each pepper was counted, a mortality rate was calculated from the following formula, and the rating of each compound was investigated.
(§2) [formula] • A rating: 90% to 100% mortality • B rating: 80% or more and less than 90% mortality • C rating: less than 80% mortality

Experiment [2] has as its system Myzus persicae (Sulzer). Kind of experiment: Insecticidal Activity Test 2 against Myzus persicae (Sulzer), foliar spray on potted peppers, approximately 25 ppm. Format: in vivo. The note with it: in Capsicum, 120 h, approximately 25 ppm drug solution in water, counted on day 5 after spraying, read-out: mortality rate rating.
Text: Insecticidal Activity Test 2 Against Myzus persicae (Sulzer)
Peppers were planted in plastic pots with a diameter of 8 cm and a height of 8 cm, Myzus persicae (Sulzer) was reproduced therein, and then the number of Myzus persicae (Sulzer) in each pot was investigated. Some of the compounds prepared in the examples were selected, the compound was dispersed in water to be diluted to approximately 25 ppm, thereby preparing a drug solution.
The drug solution was sprayed onto the foliage of the peppers planted in the pots and air-dried, and the pots were stored in a green house.
as §1, §2

With `CCN(C(=O)c1cnc(C2=NOC(C)N2)n1C)c1cccnc1` (centres unmarked) [Ia-1-4-43, N-ethyl-1-methyl-2-(5-methyl-4,5-dihydro-1,2,4-oxadiazol-3-yl)-N-(pyridin-3-yl)-1H-imidazole-5-carboxamide], the mortality at 5 µg/mL with Myzus persicae (Sulzer) [1] was in the range of 90 to 100%.

Turning to `CCC1NC(c2ncc(C(=O)N(CC)c3cccnc3)n2C)=NO1` (centres unmarked) [Ia-1-4-44, N-ethyl-2-(5-ethyl-4,5-dihydro-1,2,4-oxadiazol-3-yl)-1-methyl-N-(pyridin-3-yl)-1H-imidazole-5-carboxamide], the mortality at 5 µg/mL with Myzus persicae (Sulzer) [1] lay in the range of 90 to 100%.

As for `CCN(C(=O)c1cnc(C2=NC3(CCOCC3)ON2C)n1C)c1cccnc1` [Ia-1-5-2, N-ethyl-1-methyl-2-(2-methyl-1,8-dioxa-2,4-diazaspiro[4.5]dec-3-en-3-yl)-N-(pyridin-3-yl)-1H-imidazole-5-carboxamide], in the experiment on Myzus persicae (Sulzer) [1], the mortality at 5 µg/mL lay in the range of 90 to 100%. Moreover, in the experiment with Myzus persicae (Sulzer) [2], the mortality at 25 µg/mL lay within 90 to 100%.

Take `CCN(C(=O)c1cnc(C2=NC3(CCC(C(F)(F)F)CC3)ON2C)n1C)c1cccnc1` (centres unmarked) [Ia-1-5-6, N-ethyl-1-methyl-2-(2-methyl-8-(trifluoromethyl)-1-oxa-2,4-diazaspiro[4.5]dec-3-en-3-yl)-N-(pyridin-3-yl)-1H-imidazole-5-carboxamide]: the mortality at 5 µg/mL in the experiment on Myzus persicae (Sulzer) [1] was in the range of 90 to 100%.

What is called mortality is the share of the test organisms that died.
